Measurements from patent publication US12648947B2, “Heterocyclic derivatives, pharmaceutical compositions and their use in the treatment, amelioration or prevention of fibrotic disease” (TOLREMO THERAPEUTICS AG, priority 2020, dated 2026).
Where two headings read alike, the source gives them in different places. One block for each compound: values may come before it.

How the values were obtained:
[1] = tested on: TGF-β1 induced Fibronectin 1 (FN1) production by IPF diseased donor's bronchial epithelial cells; experiment: Epithelial-to-Mesenchymal Transition (EMT) assay; format: cell-based; set-up: Δ Percentage Inhibition (PIN), [%]: concentration or dose not given beside the values; settings: for IC50: Epithelial cell, 72 h, 5.0 ng/ml TGF-β1, 72 h, read-out: IC50 FN1, Log (converted); for Δ Percentage Inhibition (PIN), [%]: FN1
Procedure: Bronchial epithelial cells (BEC) from 3 IPF donors (PatA-C) were seeded for automated high-content/high-throughput microscopy. At day 2 cell culture medium was refreshed in the wells and cells grown until day 5, at which drug treatment was initiated.
Drug addition was done 1 h before stimuli addition (5.0 ng/ml TGF-β1). For trigger controls wells with BEC were treated with medium (unstimulated control) or 5.0 ng/ml TGF-β1 (stimulated control). For assay controls fibroblasts were treated with 5.0 ng/ml TGF-β1+0.1% DMSO (unstimulated control) or 5.0 ng/ml TGF-β1+1 μM SB525334 (positive control for inhibition). The reference compound and clinically approved drug nintedanib was added as concentration response curve (CRC) with 8-points in a semi-Log dilution staring from 10 μM. […] Wells were fixed with 4% paraformaldehyde and stained for Fibronectin (FN1) expression using immunofluorescence and with DAPI to assess nuclei number per well. Image acquisition and high content analysis (HCA) of FN1 and DAPI was done on a high content microscope.
(§1) Analysis of αSMA/FN1: Images were segmented and quantificatied for αSMA/FN1 immunoreactivity by an HCA algorithm, with density x area (DxA) output. Data were normalized from raw αSMA/FN1 (DxA) to percentage inhibition (PIN) values, on a plate-to-plate basis
(§2) [formula] • μp is the average αSMA/FN1 value of the positive control (TGF-β1+1 μM SB525334) • μn is the average of αSMA/FN1 value of the vehicle control (TGF-β1+0.1% DMSO) • Xi is the compound αSMA/FN1 value
(§3) Analysis of % Remaining cells: DAPI fluorescence applied for HCA-based quantification of the number of imaged cells, on a plate-to-plate basis.
(§4) [formula] • μn is the average numbers of nuclei of the vehicle control (TGF-β1+0.1% DMSO) • Xi is the compound number of nuclei

[2] = tested on: NCI-H1975 lung cancer cells; experiment: Fibrotic gene expression analysis by RNA sequencing; format: cell-based; settings: 1 μM, 24 h vs DMSO
Procedure: (§5) 250000 HCC827 (ATCC; CRL 2868) cells/well or 200000 NCI-H1975 (ATCC; CRL 5908) cells/well were seeded in 6-well dishes (Greiner Bio-One, 7657160) the day before drug treatment in RPMI medium containing 10% FCS and 2 mM L-Glutamine. […] Subsequently cells were washed 3 times with 2 ml PBS and lysed in 300 μl lysis buffer (RA1+1% TCEP [Sigma 646547]). RNA is extracted according to Macherey-Nagel NucleoSpin 8 RNA Kit protocol for vacuum (740698.5) for RNA extraction and RNA is eluted in H2O. RNA Library preparation and sequqnening was done externally. In short, RNA sequencing libraries were generated using TruSeq RNA Sample Prep Kit v2 following manufacturer's recommendations and index codes were added to attribute sequences to each sample. Samples were sequenced using an Illumnia platform, with paired-end reads. Illumina SBS technology utilizes a proprietary reversible terminator-based method that detects single bases as they are incorporated into DNA template strands. The original data obtained from the high throughput sequencing platforms were transformed to sequenced reads by base calling. Raw data are recorded in a FASTQ file which contains sequenced reads and corresponding sequencing quality information and were further processed to obtain transcripts per million values (TPM) for variable genes.

[3] = tested on: HCC827 lung cancer cells; experiment: as above; format: cell-based; settings: 1 μM, 24 h vs DMSO
Procedure: as §5

[4] = tested on: TGF-β1 induced α-smooth muscle actin (αSMA) production by IPF diseased donor's lung fibroblast; experiment: Fibroblast-to-Myofibroblast Transition (FMT) assay; format: cell-based; settings: for IC50: Fibroblast, 72 h, 1.25 ng/ml TGF-β1, 72 h, read-out: IC50 αSMA, Log (converted); for Potential toxicity Log [M]: concentration with >25% cell loss (DAPI nuclei); for Max. Percentage Inhibition (PIN), [%]: αSMA
Procedure: Lung fibroblasts from 3 IPF donors (Pat1-3) were seeded for automated high-content/high-throughput microscopy. At day 2 cell culture medium was refreshed in the wells and fibroblast grown until day 5, at which point drug treatment was initiated.
Drug addition was done 1 h before stimuli addition (1.25 ng/ml TGF-β1). For trigger controls wells with fibroblasts were treated with medium (unstimulated control) or 1.25 ng/ml TGF-β1 (stimulated control). For assay controls fibroblasts were treated with 1.25 ng/ml TGF-β1+0.1% DMSO (unstimulated control) or 1.25 ng/ml TGF-β1+1 μM SB525334 (positive control for inhibition). Reference compound and clinically approved drug nintedanib was added as concentration response curve (CRC) with 8-points in a semi-Log dilution starting from 10 μM.
Wells were fixed with 4% paraformaldehyde and stained for α-smooth muscle actin (αSMA) expression using immunofluorescence and with DAPI to assess nuclei number per well. Image acquisition and high content analysis (HCA) of αSMA and DAPI was done on a high content microscope.
as §1, §2, §3, §4

[5] = target: T1, CBP bromodomain (Homo sapiens, UniProt Q92793); experiment: CBP bromodomain binding assay (TR-FRET); settings: 1 hour incubation at room temperature
T1 construct: purchased Cayman chemicals 600850
T1 sequence (Q92793 1085-1192 limits assumed): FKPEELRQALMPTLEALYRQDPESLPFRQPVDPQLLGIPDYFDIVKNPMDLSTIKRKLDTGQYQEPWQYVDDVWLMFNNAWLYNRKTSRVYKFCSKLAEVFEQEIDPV
Procedure: Compounds solutions of 10 mM in DMSO were pre-diluted in DSMO to 25× stock solutions in DMSO. These were then diluted down to 4× in Assay buffer. A dilution series in Assay buffer was performed keeping the DMSO concentration stable. 5 μl compound in assay buffer was transferred into the assay plate (provided by assay kit) and the TR-FRET assay Cayman chemicals; 600850) was performed using the manufacture's instructions. After 1 hour incubation at room temperature in the darks, assay plates were read in a Tecan M1000 plate reader using the TR-FRET mode (top read; excitation 340 nm bandwidth 20 nM; emission 620 nm bandwidth 7 nM; gain optimal determined for the first well, number of flashes: 5; flash frequency 100 Hz; integration time: 500 μs, lag time: 100 μs, room temperature). The TR-FRET ratio was calculated by dividing 670 nm emission by 620 nm emission. […] Values were log transformed and non-linear regression with variable slope (4 parameters) was used to fit values to a dose-response curve to evaluate EC50 values (see table 5 below).

- EC50 [5]: < 0.2 µM
Compound: CC(=O)N1C[C@H](c2nc(Nc3ccccc3)cc(-c3cncc4[nH]ccc34)n2)CC[C@@H]1C [Compound 00063]

- EC50 [5]: < 0.2 µM
Compound: CC(=O)N1C[C@H](c2nc(Nc3cc(F)c4cc[nH]c4c3)cc(-c3cccnc3)n2)CC[C@@H]1C [Compound 00040]

- EC50 [5]: 0.2 to 1 µM
Compound: CC(=O)N1C[C@H](c2nc(Nc3ccccc3)cc(-c3cncnc3)n2)CC[C@@H]1C [Compound 00062]

- EC50 [5]: < 0.2 µM
Compound: CC(=O)N1C[C@H](c2nc(Nc3cncc(C)c3)cc(-c3cncc4[nH]ccc34)n2)CC[C@@H]1C [Compound 00075]

More lines, now with the values behind:

Compound: COc1cncc(-c2cc(Nc3cccc(F)c3)nc([C@@H]3CC[C@H](C)N(C(C)=O)C3)n2)c1 [Compound 00004]
- inhibition of TGF-β1-mediated FN1 expression ([1]; BEC from 2 IPF donors): full concentration-dependent inhibition
- inhibition of TGF-β1-mediated FN1 expression ([1]; BEC from one IPF donor, partial = ΔPIN <75): partial
- modulation of the number of nuclei ([1]; BEC, indicative of absence of potential cytotoxic side-effects): No modulation
- IC50 ([1]; PatA BEC donor): 5.01 µM
- IC50 ([1]; PatB BEC donor): 1 µM
- IC50 ([1]; PatC BEC donor): 2 µM
- Δ Percentage Inhibition (PIN), [%] ([1]; PatA BEC donor): 62.5%
- Δ Percentage Inhibition (PIN), [%] ([1]; PatB BEC donor): 84.9%
- Δ Percentage Inhibition (PIN), [%] ([1]; PatC BEC donor): 116.3%
- expression of genes up-regulated during fibrotic disease (MMP, FN1, COL1A1), mRNA abundance (TPM) [2]: reduces expression of genes
- expression of genes up-regulated during fibrotic disease (MMP, FN1, COL1A1), mRNA abundance (TPM) [3]: reduces expression of genes
- IC50 ([4]; Pat1 lung fibroblast donor): 1.26 µM
- IC50 ([4]; Pat2 lung fibroblast donor): 2.51 µM
- IC50 ([4]; Pat3 lung fibroblast donor): 2 µM
- inhibition of TGF-β1-mediated αSMA expression ([4]; all 3 IPF donors' lung fibroblast): full concentration-dependent inhibition
- Potential toxicity Log [M] ([4]; Pat1): >−5.2 Log [M]
- Potential toxicity Log [M] ([4]; Pat2): >−5.2 Log [M]
- Potential toxicity Log [M] ([4]; Pat3): >−5.2 Log [M]
- Max. Percentage Inhibition (PIN), [%] ([4]; Pat1 lung fibroblast donor): 90.3%
- Max. Percentage Inhibition (PIN), [%] ([4]; Pat2 lung fibroblast donor): 127.1%
- Max. Percentage Inhibition (PIN), [%] ([4]; Pat3 lung fibroblast donor): 105.1%

Compound: CC(=O)N1C[C@H](c2nc(Nc3ccncc3)cc(-c3cccnc3)n2)CC[C@@H]1C [Compound 00077]
- EC50 [5]: 0.2 to 1 µM

Compound: COC(=O)c1ccc2c(c1)NC(=O)/C2=C(\Nc1ccc(N(C)C(=O)CN2CCN(C)CC2)cc1)c1ccccc1 [Nintedanib, reference compound]
- IC50 ([1]; PatA BEC donor): 10 µM
- IC50 ([1]; PatC BEC donor): 0.0631 µM
- Δ Percentage Inhibition (PIN), [%] ([1]; PatA BEC donor): 45.9%
- Δ Percentage Inhibition (PIN), [%] ([1]; PatB BEC donor): 81.7%
- Δ Percentage Inhibition (PIN), [%] ([1]; PatC BEC donor): 72.1%
- IC50 ([4]; Pat1 lung fibroblast donor): 0.631 µM
- IC50 ([4]; Pat2 lung fibroblast donor): 0.398 µM
- IC50 ([4]; Pat3 lung fibroblast donor): 0.2 µM
- Potential toxicity Log [M] ([4]; Pat1): >−5.5 Log [M]
- Potential toxicity Log [M] ([4]; Pat2): >−7.0 Log [M]
- Potential toxicity Log [M] ([4]; Pat3): >−6.0 Log [M]
- Max. Percentage Inhibition (PIN), [%] ([4]; Pat1 lung fibroblast donor): 109.3%
- Max. Percentage Inhibition (PIN), [%] ([4]; Pat2 lung fibroblast donor): 101%
- Max. Percentage Inhibition (PIN), [%] ([4]; Pat3 lung fibroblast donor): 98.4%
